The values that follow come from patent US6489316B2, “6-(spirocyclopropyl) penicillanic acid 4, 4-dioxides” (priority 2000, dated 2002).

Read-outs that look alike come from different tables or passages of the source.

For test [1], the target named is Class C(AmpC) beta-lactamase (UniProt P00811). Briefly: beta-lactamase inhibition, spectrophotometric with nitrocefin. Format: biochemical. The settings on record: for IC50: 10-minute preincubation of enzyme with inhibitor at 25° C., nitrocefin substrate; for inhibition of class C(AmpC) enzymes, in words: summary of Table I.
Test [2] has as its target Class A(TEM-1) beta-lactamase (Escherichia coli, UniProt P62593). The test is described as above. The test is classed as biochemical. To be noted: for IC50: 10-minute preincubation of enzyme with inhibitor at 25° C., nitrocefin substrate; for inhibition of class A(TEM-1) enzymes, in words: summary of Table I.
The subject of the next test is E. coli + (TEM-1). Briefly: microbial assay, MIC in broth, antibiotic with inhibitor 1:1. To be noted: Table III, serial two-fold dilutions, combinations 1:1 ratio Piperacillin to inhibitor. The test is classed as cell-based. How it is done: (§1) Representative Example 9 was tested in a microbial assay in combination with the penicillin antibiotic Piperacillin. In these tests, minimum inhibitory concentration(MIC) are determined in broth using serial two-fold dilutions with a 1:1 ratio of Piperacillin to inhibitor(N. A. Kuck; N. V. Jacobs; P. J. Peterson; W. J. Weiss; and R. T. Testa, in “Antimicrobial Agents and Chemotherapy”, Vol. 33, 1989, pages 1964-1969).

The next test concerns E. coli + (AmpC). The description is as above. The test is classed as cell-based. To be noted: Escherichia coli, serial two-fold dilutions. On the procedure:
as §1

The test system of the next test is E. coli GC 6265 (TEM-1). The description is as above. The test is classed as cell-based. To be noted: for MIC: Escherichia coli, Table II, combinations 1:1 ratio antibiotic to inhibitor. On the procedure:
as §1

For the next test, the system named is S. marcescens (AmpC). The description is as above. The test is classed as cell-based. The settings on record: Serratia marcescens, serial two-fold dilutions. How it is done: as §1
Test [3] concerns P. aeroginosa (AmpC derepressed). Described as above. Format: cell-based. The settings on record: serial two-fold dilutions. How it is done:
as §1

Another test concerns E. coli 300 + (AmpC). The description is as above. The test is classed as cell-based. To be noted: for MIC: Escherichia coli, Table II, combinations 1:1 ratio antibiotic to inhibitor. On the procedure:
as §1

In test [4] the target is Class B(Imi-1) beta-lactamase (Enterobacter cloacae, UniProt Q46991). Nature of the test: beta-lactamase inhibition, spectrophotometric with nitrocefin. Format: biochemical. The settings on record: 10-minute preincubation of enzyme with inhibitor at 25° C., nitrocefin substrate.
Chain of Class B(Imi-1) beta-lactamase (Q46991 entry or part of it): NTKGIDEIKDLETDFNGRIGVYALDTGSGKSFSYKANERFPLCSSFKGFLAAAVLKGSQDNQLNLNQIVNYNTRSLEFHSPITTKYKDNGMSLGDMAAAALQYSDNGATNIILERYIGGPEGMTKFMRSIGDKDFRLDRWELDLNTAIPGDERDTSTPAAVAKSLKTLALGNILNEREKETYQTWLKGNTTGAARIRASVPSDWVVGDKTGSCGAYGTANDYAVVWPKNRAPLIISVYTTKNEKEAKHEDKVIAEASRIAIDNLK
The mark [5] stands for this setting: Table II, combinations 1:1 ratio antibiotic to inhibitor.
The mark [6] stands for this setting: Table III, combinations 1:1 ratio Piperacillin to inhibitor.
Where [7] appears, read: broth, serial two-fold dilutions.
[8] abbreviates: Table III, broth, serial two-fold dilutions, combinations 1:1 ratio Piperacillin to inhibitor.
Setting [9] is: Table II, combinations 1:1 ratio antibiotic to inhibitor, read-out: MIC P. aeroginosa (AmpC derepressed).
Setting [10] is: summary of Table II, combined with piperacillin or cefotaxime.

Chain of Class A(TEM-1) beta-lactamase (P62593 24-286 limits assumed): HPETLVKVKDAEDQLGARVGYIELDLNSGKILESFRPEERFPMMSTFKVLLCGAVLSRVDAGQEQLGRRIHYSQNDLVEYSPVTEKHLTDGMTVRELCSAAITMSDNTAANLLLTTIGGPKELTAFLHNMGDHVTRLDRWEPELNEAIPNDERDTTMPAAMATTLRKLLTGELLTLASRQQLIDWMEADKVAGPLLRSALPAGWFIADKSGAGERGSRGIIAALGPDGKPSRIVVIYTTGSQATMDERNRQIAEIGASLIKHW

As usually defined, the IC50 is the concentration that gives 50% inhibition. `CC(C)(C)[Si](C)(C)OC1C[C@@]12C(=O)N1[C@@H](C(=O)O)C(C)(C)S(=O)(=O)[C@@H]12` (single isomer, unassigned) [Example 8]: the IC50 in test [1] is 1900 nM; in [2] (IC50 Class A(TEM-1)), 17000 nM.

A word on the MIC: it is the least concentration at which growth counts as inhibited. As to `CCN1CCN(C(=O)N[C@@H](C(=O)N[C@@H]2C(=O)N3[C@@H]2SC(C)(C)[C@@H]3C(=O)O)c2ccccc2)C(=O)C1=O` [Piperacillin], in the test with E. coli + (TEM-1), the “MIC E. coli + (TEM-1)” value was above 64 µg/mL. For the same compound, the MIC was above 64 µg/mL in the test on E. coli + (AmpC) (setting [5]); 32 µg/mL in the test with E. coli + (AmpC) (setting [6]); above 64 µg/mL in the test with E. coli GC 6265 (TEM-1) (setting [7]); 32 µg/mL in the test with S. marcescens (AmpC) (setting [5]); 64 µg/mL in the test with S. marcescens (AmpC) (setting [6]); above 64 µg/mL in test [3] (setting [9]). Further, the MIC in [3] (Table III, combinations 1:1 ratio Piperacillin to inhibitor, read-out: MIC P. aeroginosa) is above 64 µg/mL; with E. coli 300 + (AmpC) (setting [7]) it was 32 µg/mL. Besides, in the test on E. coli GC 6265 (TEM-1) (setting [8]), the “MIC E. coli GC 6265 (TEM-1)” value was above 64 µg/mL. Further, in the test with E. coli 300 + (AmpC) (setting [8]), the “MIC E. coli 300 + (AmpC)” value amounted to 32 µg/mL.

As for `CC1(C)C(C(=O)O)N2C(=O)C3(CC3OC3CCCCC3)C2S1(=O)=O` (single isomer, unassigned) [Example 13], in test [1], the midpoint of inhibition, the IC50, lay at 37 nM and the “inhibition of class C(AmpC) enzymes, in words” value is reported as “very potent inhibitors”. This compound also registered an IC50 in test [2] (IC50 Class A(TEM-1)) of 510 nM. In addition, the “inhibition of class A(TEM-1) enzymes, in words” value in test [2] is recorded as “potent inhibitors”.

As to `CC1(C)C(C(=O)O)N2C(=O)C3(CC3OC3CCCCC3)C2S1(=O)=O` (single isomer, unassigned) [Example 14], the IC50 is 3160 nM in test [1] and 130000 nM in test [2] (IC50 Class A(TEM-1)).

For `CC1(C)[C@H](C(=O)O)N2C(=O)C[C@H]2S1(=O)=O` [Sulbactam, reference compound], in test [1], the IC50 turned out to be 65900 nM.

For `CC1(C)C(C(=O)O)N2C(=O)C3(CC3OC3CCCCC3)C2S1(=O)=O` (single isomer, unassigned) [Example 12], the IC50 in test [1] came out at 32000 nM; in [2] (IC50 Class A(TEM-1)), 1700 nM.

In the case of `CC(C)(C)[Si](C)(C)O[C@H]1C[C@]12C(=O)N1[C@@H](C(=O)[O-])C(C)(C)S(=O)(=O)[C@@H]12.[Na+]` [Example 9, (1R,2S,5R)-2-[(tert-Butyldimethylsilyl)oxy]-3,3-dimethyl-7-oxospiro[cyclopropane-1,6-[4]thia[1]azabicyclo[3.2.0]-heptane]-2-carboxylic acid, Sodium Salt, 4,4-dioxide], the results for the IC50 in test [4], in [1] and in [2] (read-out: IC50 Class A(TEM-1)) were 12000 nM, 21 nM and 650 nM, respectively. In addition, the “inhibition of class C(AmpC) enzymes, in words” value in test [1] is reported as “very potent inhibitors”. Further, the “activity as a beta-lactamase inhibitor with E.coli GC6265 (TEM-1), in words” value in the test with E. coli GC 6265 (TEM-1) (setting [10]) is recorded as “very potent activity”. Besides, the “activity as a beta-lactamase inhibitor with E.coli 300+(AmpC), in words” value with E. coli 300 + (AmpC) (setting [10]) is reported as “very potent activity”. Moreover, in test [2], the “inhibition of class A(TEM-1) enzymes, in words” value is reported as “potent inhibitors”.

Consider `CC(C)(C)[Si](C)(C)OC1CC12C(=O)N1[C@@H](C(=O)O)C(C)(C)S(=O)(=O)[C@@H]12` (single isomer, unassigned) [Example 10], for which, in [1], the IC50 is 343 nM and the “inhibition of class C(AmpC) enzymes, in words” value was “very potent inhibitors”. Besides, the midpoint of inhibition in test [2] (IC50 Class A(TEM-1)), the IC50, lay at 12000 nM.

As to `CO/N=C(\C(=O)N[C@@H]1C(=O)N2C(C(=O)O)=C(COC(C)=O)CS[C@H]12)c1csc(N)n1` [Cefotaxime, cefotaxime], the MIC was above 64 µg/mL in the test with E. coli + (AmpC) (setting [5]); 64 µg/mL in the test on E. coli GC 6265 (TEM-1) (setting [7]); 8 µg/mL in the test with S. marcescens (AmpC) (setting [5]); above 64 µg/mL in [3] (setting [9]); 16 µg/mL in the test on E. coli 300 + (AmpC) (setting [7]).
